Experimental findings from the OPERA property sets (Mansouri et al. 2018) are described below.

In brackets after ≈: the same amount, converted by molar mass. Where a SMILES comes first, the peptide text is derived from it.

By logP is commonly meant a log measure of how a compound divides between an organic and an aqueous phase. As usually defined, the solubility is the dissolved amount per volume that the medium holds. Low readings indicate a poorly soluble substance, high ones a readily soluble substance.

Conditions in one series: not given
For `ClCC1(C(Cl)Cl)C2CC(Cl)(Cl)C1(C(Cl)Cl)C(Cl)C2Cl` (stereo not given), the logP turned out to be 5.96. The same measure, in the same setting: then `O=S(=O)(C(Cl)(Cl)Cl)C(Cl)(Cl)Cl`, with 3.3; and `Cc1ccc(S(=O)(=O)CC(=O)c2ccc(Cl)cc2)cc1`, with 3.43; and `CC(C)CN(CC(C)C)N=O`, with 2.34. `N[C@@H]1[C@H]2CN(c3nc4c(cc3F)c(=O)c(C(=O)O)cn4-c3ccc(F)cc3F)C[C@@H]12` registered a lipophilicity (logP) of 0.31. The same measure, in the same setting: the value for `Clc1cc2c(Cl)cccc2c(Cl)c1Cl` was 5.77; that for `CCCCOCCNc1ccccc1C(N)=O` was 2.27. Still for that read-out and setting: then `O=C1C2=C(CCCC2)C(=O)N1c1ccc(Cl)cc1`, with 3.32; and `CCN(CC)P(=O)(N(CC)CC)N(CC)CC`, with 2.53. The compound `CC(C)(C)C1=CC(=O)C=C(C(C)(C)C)C1=O` came in with a logP of 4.42.

Regarding `c1ccc2c(c1)ccc1nc3c(ccc4ccccc43)cc12`, the logP came to 5.73. Still for that read-out and setting: then `N[C@@H](Cc1ccc(O)c(O)c1)C(=O)OCCc1ccccc1`, with 1.76.

As to `NS(=O)(=O)c1cc2c(cc1C(F)(F)F)NC(Cc1ccccc1)NS2(=O)=O` (stereo not given), the logP came to 1.89. `Cc1ccc(OP(=O)(Oc2ccc(C)cc2)Oc2ccc(C)cc2)cc1` registered a solubility of 0.000814 mM (≈ 0.0003 mg/mL). As for `Cc1ncc(CO)c(C=O)c1O.Cl`, the solubility was 2460 mM. In the case of `O=P(O)(O)CCCl`, the log partition coefficient (logP) is -0.22. Still for that read-out and setting: then `CC(=O)N[C@H](C(=O)N[C@@H](C)C(N)=O)C(C)C` (Ac-Val-Ala-NH2), with -1.14.

In turn, `CCN1CCC(CNC(=O)c2cc(S(N)(=O)=O)c(N)cc2OC)C1` (stereo not given) came in with a logP of 0.66. As for `NC(=O)C=Cc1ccc([N+](=O)[O-])o1`, the log partition coefficient (logP) was 0.65.

The same series, now with this note: 20 °C.
As for `CC1=C(c2ccccc2)C(=O)N(C(C)(C)c2cc(Cl)cc(Cl)c2)CO1`, the solubility was 0.000478 mM (≈ 0.00018 mg/mL).

For the compound `CN(C)C(=N)N`, the solubility turned out to be 18.6 mM (≈ 1.62 mg/mL).

Take `C=COC`: the solubility came to 258 mM (≈ 15 mg/mL). On the same count and under the same terms, then `c1ccc(C2CO2)cc1` (stereo not given), with 25 mM (≈ 3 mg/mL); and `CC(C)(CO)[N+](=O)[O-]`, with 29400 mM (≈ 3500 mg/mL).

Staying with this series, now noted: 23 °C.
The compound `CN(N=O)C(N)=O` came in with a solubility of 140 mM (≈ 14.4 mg/mL).

`C[Si]1(C)O[Si](C)(C)O[Si](C)(C)O[Si](C)(C)O[Si](C)(C)O[Si](C)(C)O1` had a solubility of 1.15e-05 mM (≈ 5.1e-06 mg/mL).

Staying with this series, now noted: 23.0 °C.
For the compound `CC1=CCC(=O)O1`, the log10 OH rate constant (cm³/molecule/s) was -10.2. Same read-out and setting: then `CC(=O)C(C)(C)O`, with -12; and `CCCCOCCOCCO`, with -10.1.

The series is the same for the next values; noted with them: 24 °C.
Regarding `Sc1nc2ccccc2s1`, the solubility is 0.658 mM (≈ 0.11 mg/mL).

The same series, now with this note: 24.0 °C.
Regarding `Clc1cccc2c1Oc1ccccc1O2`, the log10 OH rate constant (cm³/molecule/s) is -11.3.

The same series, now with this note: 25 °C.
The compound `c1ccc2c(c1)ccc1c3ccc4ccccc4c3[nH]c21` came in with a solubility of 3.78e-05 mM (≈ 1.01e-05 mg/mL).

In turn, `CC(O)COc1ccccc1` (stereo not given) returned a solubility of 72.3 mM (≈ 11 mg/mL). Still for that read-out and setting: the value for `Oc1ccc(N=Nc2ccc(N=Nc3ccccc3)c3ccccc23)cc1` was 0.000979 mM (≈ 0.000345 mg/mL); that for `CCCCCCC(C)O` (racemic) was 9.2 mM (≈ 1.2 mg/mL); that for `C#CCBr` was 125 mM (≈ 14.9 mg/mL). Still for that read-out and setting: the value for `O=[N+]([O-])c1ccc2c3c(cccc13)CC2` was 0.00457 mM (≈ 0.00091 mg/mL); that for `CCCCCCO[N+](=O)[O-]` was 0.747 mM (≈ 0.11 mg/mL); that for `Oc1cc(Cl)c(Cl)cc1Cl` was 6.08 mM (≈ 1.2 mg/mL). On the same count and under the same terms, then `O=NN(c1ccccc1)c1ccccc1`, with 0.177 mM (≈ 0.035 mg/mL). `O=C(O)CCCOc1cc(Cl)c(Cl)cc1Cl` showed a solubility of 0.148 mM (≈ 0.042 mg/mL). On to `CCS(=O)(=O)c1cccnc1S(=O)(=O)NC(=O)Nc1nc(OC)cc(OC)n1`, for which the solubility was < 0.0232 mM. The compound `Clc1ccc(/N=N/c2ccccc2)cc1` displayed a solubility of 0.00198 mM (≈ 0.00043 mg/mL). Take `N[C@@H]1[C@H]2CN(c3nc4c(cc3F)c(=O)c(C(=O)O)cn4-c3ccc(F)cc3F)C[C@@H]12`: the solubility came out at 0.0295 mM (≈ 0.0123 mg/mL). On the same count and under the same terms, the value for `CCCCCCCCOP(=O)(Oc1ccccc1)Oc1ccccc1` was 0.000386 mM (≈ 0.00014 mg/mL).

Take `CN(C)C(=O)Nc1ccc(Cl)c(Cl)c1`: the solubility worked out at 0.18 mM (≈ 0.042 mg/mL).

Still in this series, the particulars now being: 25.0 °C.
As to `NCC(F)(F)F`, the log10 OH rate constant (cm³/molecule/s) was -12.

In the case of `CC/C=C\CCOC(C)=O`, the log10 OH rate constant (cm³/molecule/s) was -10.1.

Regarding `FCOC(C(F)(F)F)C(F)(F)F`, the log10 OH rate constant (cm³/molecule/s) is -13.1. Turning to `C1CC2CCCC2C1` (stereo not given), the log10 OH rate constant (cm³/molecule/s) is -11. For the compound `C=CC(C)(C)O`, the log10 OH rate constant (cm³/molecule/s) was -10.2. The same measure, in the same setting: the value for `CCOCC=O` was -10.8; that for `FC(Cl)C(F)(F)Cl` (stereo not given) was -13.9; that for `CC(=O)C(C)C` was -11.5. Same read-out and setting: then `C=C(C)OC(C)=O`, with -10.2; and `FC(F)(F)CC(F)(F)F`, with -15; and `CCBr`, with -12.5. In the case of `CC(=O)CCC(C)C`, the log10 OH rate constant (cm³/molecule/s) was -11. On to `O=CC(Cl)Cl`, for which the log10 OH rate constant (cm³/molecule/s) is -11.6. Still for that read-out and setting: then `CNC(=O)OC`, with -11.4.

Still in this series, the particulars now being: 27.0 °C.
`CCc1ccco1`: the log10 OH rate constant (cm³/molecule/s) is -9.97. The same measure, in the same setting: the value for `Cc1ccco1` was -10.2; that for `Cc1ccc(O)c(O)c1` was -9.81; that for `O=Cc1ccoc1` was -10.3.

Still in this series, the particulars now being: 30 °C.
Compound `Brc1ccccc1` came in with a solubility of 2.84 mM (≈ 0.446 mg/mL).
